Assay [1] addresses T1, Ubiquitin-conjugating enzyme E2 N (Homo sapiens, UniProt P61088).
T1 sequence (P61088 whole entry): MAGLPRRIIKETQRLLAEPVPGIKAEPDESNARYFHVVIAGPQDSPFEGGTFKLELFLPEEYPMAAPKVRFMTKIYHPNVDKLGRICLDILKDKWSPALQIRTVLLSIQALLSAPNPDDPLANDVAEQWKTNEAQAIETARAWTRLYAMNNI
It counts as functional.

Another assay addresses Nonstructural protein 1 (Influenza A virus, UniProt Q194T2). It counts as functional, Influenza A virus (A/California/07/2009(H1N1)).
Assay [2] has as its target T2, Alkaline phosphatase, tissue-nonspecific isozyme (Homo sapiens, UniProt P05186).
T2 sequence (P05186 whole entry): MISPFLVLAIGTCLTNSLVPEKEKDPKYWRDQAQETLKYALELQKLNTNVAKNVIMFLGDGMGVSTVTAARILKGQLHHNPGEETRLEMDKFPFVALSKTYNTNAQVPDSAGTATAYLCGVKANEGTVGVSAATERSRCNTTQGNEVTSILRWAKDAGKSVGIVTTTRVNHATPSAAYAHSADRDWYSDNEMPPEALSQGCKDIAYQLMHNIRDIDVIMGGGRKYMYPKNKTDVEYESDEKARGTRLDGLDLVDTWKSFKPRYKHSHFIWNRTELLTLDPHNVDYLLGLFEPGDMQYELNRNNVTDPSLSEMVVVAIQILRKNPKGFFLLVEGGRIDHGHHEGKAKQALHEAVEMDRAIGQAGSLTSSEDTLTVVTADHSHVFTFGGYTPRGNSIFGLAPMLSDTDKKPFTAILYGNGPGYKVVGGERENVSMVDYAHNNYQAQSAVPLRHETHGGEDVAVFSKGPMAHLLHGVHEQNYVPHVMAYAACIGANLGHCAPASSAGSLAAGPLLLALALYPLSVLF
Kind of assay: TNAP enzyme inhibition by screening hits, dose response, selectivity assay for mouse IAP inhibitor project, biochemical, human TNAP, uHTS hits (AID 488906). The class given is functional.

The target in assay [3] is Intestinal-type alkaline phosphatase (Homo sapiens, UniProt P09923). Kind of assay: inhibition of human intestinal alkaline phosphatase – biochemical, dose response (AID 488876). It counts as functional.
Intestinal-type alkaline phosphatase, sequence (P09923 whole entry): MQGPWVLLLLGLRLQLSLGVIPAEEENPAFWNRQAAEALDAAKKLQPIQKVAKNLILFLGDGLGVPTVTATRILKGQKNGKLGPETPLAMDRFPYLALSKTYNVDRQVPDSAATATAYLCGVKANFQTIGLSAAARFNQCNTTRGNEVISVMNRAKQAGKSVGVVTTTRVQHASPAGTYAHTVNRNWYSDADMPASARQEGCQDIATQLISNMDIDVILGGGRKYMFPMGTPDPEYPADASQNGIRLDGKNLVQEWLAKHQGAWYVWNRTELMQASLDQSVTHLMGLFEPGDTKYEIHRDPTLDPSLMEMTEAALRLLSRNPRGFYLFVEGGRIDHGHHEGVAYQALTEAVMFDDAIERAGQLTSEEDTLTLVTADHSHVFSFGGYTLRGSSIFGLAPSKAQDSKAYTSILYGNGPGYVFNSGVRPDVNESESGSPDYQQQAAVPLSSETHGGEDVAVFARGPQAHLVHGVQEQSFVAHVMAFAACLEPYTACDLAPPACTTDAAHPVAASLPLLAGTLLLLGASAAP

Activity calls are given as the source filed them. Rule as the data show it, for most assays here: actives have a measured IC50 and inactives only a lower limit.

Nonstructural protein 1, sequence (Q194T2 whole entry): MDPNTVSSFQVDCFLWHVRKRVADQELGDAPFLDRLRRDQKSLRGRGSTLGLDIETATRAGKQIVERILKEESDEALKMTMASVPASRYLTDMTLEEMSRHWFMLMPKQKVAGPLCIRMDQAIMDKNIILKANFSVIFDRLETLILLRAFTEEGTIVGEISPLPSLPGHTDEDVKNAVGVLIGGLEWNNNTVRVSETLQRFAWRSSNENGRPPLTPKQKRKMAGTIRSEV

What is called IC50 is the point on the concentration scale where inhibition reaches its midpoint. On to `CCCCCCCCCCOC(=O)C[n+]1c(COc2ccccc2OC)n(C)c2ccccc21`, for which, in assay [1], the IC50 is 15.6 µM (active).

Regarding `O=c1ccc2c(-c3ccccc3S(=O)(=O)O)c3ccc(O)c(O)c3oc-2c1O` [PYROGALLOL RED], the half-maximal inhibitory concentration (IC50) on Nonstructural protein 1 was 13.5 µM (active); in assay [2] it was 24.1 µM (active); in assay [3] it was > 100 µM (inactive).
